Assay results as given in patent US20230285489A1, “METHODS, COMPOSITIONS, AND KITS ADDRESSING DEPRESSED MOOD” (Centre for Addiction and Mental Health, priority 2014, published 2023).

Experiment: Breast milk and plasma amino acid levels and tolerability after oral tyrosine or tryptophan
Details: for amount of free amino acid in breast milk: after oral supplementation
Method: Many amino acids and most medications freely cross into breast milk. […] The reason is that approximately 98% of tryptophan in breast milk is contained in proteins and peptides and that 99% of tyrosine in breast milk is contained in proteins and peptides. Different supplementation doses of oral tyrosine (0 g (none), 2, 5 or 10 grams) (n=6 each) or oral tryptophan (0 g (none), 2 or 4 grams) (n=6 each) were evaluated for resulting levels in breast milk.

SMILES: N[C@@H](Cc1c[nH]c2ccccc12)C(=O)O [tryptophan, L-tryptophan]
- amount of free amino acid in breast milk: did increase
- total tryptophan levels in breast milk (oral tryptophan 2 or 4 grams, n=6 each): no change
- adverse effect (tryptophan 4 gram level): nausea
- total tryptophan in breast milk (tryptophan 4 gram level): did not increase
- level in maternal plasma (tryptophan dose of 2 grams): significantly increased
- tolerability (tryptophan dose of 2 grams): extremely well tolerated
- total tryptophan levels in breast milk (tryptophan dose of 2 grams): did not have any effects

SMILES: N[C@@H](Cc1ccc(O)cc1)C(=O)O [tyrosine, L-tyrosine]
- amount of free amino acid in breast milk: did increase
- total tyrosine levels in breast milk (oral tyrosine 2, 5 or 10 grams, n=6 each): no change
- level in maternal plasma (tyrosine dose of 10 grams): significantly increased
- tolerability (tyrosine dose of 10 grams): extremely well tolerated
- total tyrosine levels in breast milk (tyrosine dose of 10 grams): did not significantly impact
